{"source": "paper PMC8071423", "about": "“A New Pyrimidine Schiff Base with Selective Activities against Enterococcus faecalis and Gastric Adenocarcinoma” (Molecules, 2021)", "key": {"[1]": {"test_system": "Candida albicans ATCC 10231", "assay": "Antimicrobial microdilution / modified Richards method", "type": "cell-based", "details": "ATCC10231; Candida albicans 10231; according to the EUCAST examination; read-out: MIC (reference agent)"}, "[2]": {"test_system": "Escherichia coli ATCC 25922", "assay": "Antimicrobial microdilution / modified Richards method", "type": "cell-based", "details": "ATCC25922; Escherichia coli 25922; according to the EUCAST examination; read-out: MIC (reference agent)"}, "[3]": {"test_system": "Klebsiella pneumoniae ATCC 13883", "assay": "Antimicrobial microdilution / modified Richards method", "type": "cell-based", "details": "ATCC13883; Klebsiella pneumoniae 13883; according to the EUCAST examination; read-out: MIC (reference agent)"}, "[4]": {"test_system": "Enterococcus faecalis ATCC 29212", "assay": "Antimicrobial microdilution / modified Richards method", "type": "cell-based", "details": "Enterococcus faecalis, ATCC29212, Enterococcus faecalis 29212; according to the EUCAST examination; read-out: MIC (reference agent)"}, "[5]": {"test_system": "Pseudomonas aeruginosa ATCC 27853", "assay": "Antimicrobial microdilution / modified Richards method", "type": "cell-based", "details": "ATCC27853; Pseudomonas aeruginosa 27853; according to the EUCAST examination; read-out: MIC (reference agent)"}, "[6]": {"test_system": "Staphylococcus aureus ATCC 43300", "assay": "Antimicrobial microdilution / modified Richards method", "type": "cell-based", "details": "ATCC43300; Staphylococcus aureus 43300; according to the EUCAST examination; read-out: MIC (reference agent)"}, "[7]": {"test_system": "Streptococcus pneumoniae ATCC 49619", "assay": "Antimicrobial microdilution / modified Richards method", "type": "cell-based", "details": "ATCC49619; Streptococcus pneumoniae 49619; according to the EUCAST examination; read-out: MIC (reference agent)"}, "[8]": {"test_system": "AGS cell line", "assay": "Microscopic observation of cell and nucleus morphology, Hoechst 33342", "type": "cell-based, human", "details": "positive control, 1 µM", "description": "Morphological changes and DNA fragmentation were examined with an Olympus IX53 inverted fluorescence microscope after staining with Hoechst 33342 according to the manufacturer’s recommendations Thermo Scientific (Waltham, MA, USA). Briefly, cells were seeded in 12-well plates with a density of 1 × 10^5 cell/mL. After overnight incubation, the test substance was added in a half-maximal inhibitory (IC50) concentration and incubated for 24, 48, and 72 h. Before microscopic observation, both adherent and floating cells were collected, centrifuged, resuspended in PBS containing 1 µg/mL Hoechst 33342 dye. After 10 min incubation in the dark, the morphology of cells and DNA were visualized using a contrast phase and a UV filter."}}, "data": [{"molecule": "C[C@@H]1[C@H](O)[C@@H](C)/C=C/C=C/C=C/C=C/C=C/C=C/C=C/[C@H](O[C@@H]2O[C@H](C)[C@@H](O)[C@H](N)[C@@H]2O)C[C@@H]2O[C@](O)(C[C@@H](O)C[C@@H](O)[C@H](O)CC[C@@H](O)C[C@@H](O)CC(=O)O[C@H]1C)C[C@H](O)[C@H]2C(=O)O", "note": "[amphotericin B]", "values": [{"measurement": "MIC", "setting": "[1]", "value": 1, "unit": "µg/mL"}]}, {"molecule": "CNC(C)C1CCC(N)C(OC2C(N)CC(N)C(OC3OCC(C)(O)C(NC)C3O)C2O)O1", "note": "(centres unmarked) [gentamicin]", "values": [{"measurement": "MIC", "setting": "[2]", "value": 2, "unit": "µg/mL"}]}, {"molecule": "C[C@H]1COc2c(N3CCN(C)CC3)c(F)cc3c(=O)c(C(=O)O)cn1c23", "note": "[levofloxacin]", "values": [{"measurement": "MIC", "setting": "[3]", "value": 0.5, "unit": "µg/mL"}, {"measurement": "MIC", "setting": "[4]", "value": 4, "unit": "µg/mL"}, {"measurement": "MIC", "setting": "[5]", "value": 1, "unit": "µg/mL"}, {"measurement": "MIC", "setting": "[6]", "value": 1, "unit": "µg/mL"}, {"measurement": "MIC", "setting": "[7]", "value": 0.001, "unit": "µg/mL"}]}, {"molecule": "CN[C@@H]1C[C@H]2O[C@@](C)([C@@H]1OC)n1c3ccccc3c3c4c(c5c6ccccc6n2c5c31)C(=O)NC4", "note": "[staurosporine, reference compound]", "values": [{"measurement": "cell and nucleus morphology", "setting": "[8]", "value": "Shrunken cells’ bodies and fragmented DNA"}]}]}
